Assay results published in ChEMBL document CHEMBL1136313, “Biological evaluation of sphingomyelin analogues as inhibitors of sphingomyelinase” (Bioorg Med Chem Lett, 2003).

biological target: T1, Sphingomyelin phosphodiesterase 2 (Rattus norvegicus, UniProt Q9ET64); assay: Inhibitory activity against N-SMase (neutral magnesium- dependent-sphingomyelinase) using rat brain microsomes
T1 sequence (Q9ET64 whole entry): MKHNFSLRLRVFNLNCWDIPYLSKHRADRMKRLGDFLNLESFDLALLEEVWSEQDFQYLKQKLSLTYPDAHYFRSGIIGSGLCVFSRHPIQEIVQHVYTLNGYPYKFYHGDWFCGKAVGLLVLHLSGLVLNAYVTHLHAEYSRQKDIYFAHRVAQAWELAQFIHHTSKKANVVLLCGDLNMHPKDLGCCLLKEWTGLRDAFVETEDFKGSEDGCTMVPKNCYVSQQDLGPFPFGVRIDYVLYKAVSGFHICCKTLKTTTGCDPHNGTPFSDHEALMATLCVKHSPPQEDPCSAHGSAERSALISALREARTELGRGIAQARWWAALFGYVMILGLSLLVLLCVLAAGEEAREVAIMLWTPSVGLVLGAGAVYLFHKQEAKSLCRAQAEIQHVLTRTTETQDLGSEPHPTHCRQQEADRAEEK

**Q.** For `CCCCCCCCCCCC[C@@H](O)[C@H](COC(=O)NCc1ccncc1)NC(=O)C(C)(C)C`, which IC50 is on record?
**A.** > 100 µM

**Q.** How did the IC50 turn out when `CCCCCCCCCCCCCCC/C=C/[C@@H](O)[C@H](COC(=O)NCc1ccncc1)NC(=O)C(C)(C)C` was run?
**A.** 6.6 µM

**Q.** Which IC50 does the source give for `CCCCCCCCCC/C=C/[C@@H](O)[C@H](COC(=O)NCc1ccncc1)NC(=O)C(C)(C)C` here?
**A.** 6.8 µM

**Q.** With `CCCCCCCCCCCCC/C=C/[C@@H](O)[C@H](CNC(=S)NCc1ccncc1)NC(=O)C(C)(C)C` as the compound, how does the IC50 read?
**A.** 45 µM

**Q.** With `CCCCCCCCCCCCC/C=C/[C@@H](O)[C@H](COC(=O)N(O)Cc1ccncc1)NC(=O)C(C)(C)C` as the compound, how does the IC50 read?
**A.** 21 µM

**Q.** With `CCCCCCCCCCCCCCC[C@@H](O)[C@H](COC(=O)NCc1ccncc1)NC(=O)C(C)(C)C` as the compound, how does the IC50 read?
**A.** > 100 µM

**Q.** For `CCCCCCCCCCCCC/C=C/[C@@H](O)[C@H](COC(=O)NCc1ccncc1)NC(=O)C(C)(C)C`, which IC50 is on record?
**A.** 2.8 µM

**Q.** `CCCCCCCCCCCCC/C=C/[C@@H](O)[C@H](CNC(=O)NCc1ccncc1)NC(=O)C(C)(C)C` was tested. Which IC50 did it give?
**A.** 2.9 µM

**Q.** For `CCCCCCCCCCCCC/C=C/[C@@H](O)[C@H](CNC(=O)OCc1ccncc1)NC(=O)C(C)(C)C`, which IC50 is on record?
**A.** 58 µM
